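The compound was tested at five concentrations on cells cultured in 96-well plates, with a 48-hour exposure period. Here, GI50 denotes the concentration required for 50% inhibition of growth.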 The source made the active and inactive calls. No stated cut-off is given here; in the data, active = GI50 up to about 1.1 µM and inactive = higher.
Key:
Assay in all cases: NCI anticancer screen, dose series, 48 h
[1] = test system: BT-549
[2] = test system: DU-145
[3] = test system: HCC 2998
[4] = test system: HCT-116
[5] = test system: HOP-92
[6] = test system: IGROV-1
[7] = test system: MDA-N
[8] = test system: NCI-H23
[9] = test system: NCI-H522
[10] = test system: OVCAR-3
[11] = test system: SK-MEL-28
[12] = test system: SK-MEL-2
[13] = test system: SK-MEL-5
[14] = test system: SK-OV-3
[15] = test system: SNB-75
[16] = test system: SR
[17] = test system: SW-620
[18] = test system: TK-10
[19] = test system: U-251
[20] = test system: UACC-257

Structure (SMILES) | GI50 [1] | GI50 [2] | GI50 [3] | GI50 [4] | GI50 [5] | GI50 [6] | GI50 [7] | GI50 [8] | GI50 [9] | GI50 [10] | GI50 [11] | GI50 [12] | GI50 [13] | GI50 [14] | GI50 [15] | GI50 [16] | GI50 [17] | GI50 [18] | GI50 [19] | GI50 [20]
CCOC(=O)c1c(C)c(C)n2c1NC(=O)C2 | 50.9 µM (inactive) | 20.8 µM (inactive) | 97.1 µM (inactive) | 36.6 µM (inactive) | > 91.4 µM (inactive) | > 72.1 µM (inactive) | > 100 µM (inactive) | > 43 µM (inactive) | > 43.7 µM (inactive) | > 64.4 µM (inactive) | > 100 µM (inactive) | > 100 µM (inactive) | > 100 µM (inactive) | > 100 µM (inactive) | 39.1 µM (inactive) | 37.2 µM (inactive) | > 54 µM (inactive) | > 55.8 µM (inactive) | > 48.1 µM (inactive) | > 60 µM (inactive)
CC(C)(C)CC(N)=O | > 100 µM (inactive) | > 100 µM (inactive) | > 100 µM (inactive) | > 100 µM (inactive) | > 100 µM (inactive) | > 100 µM (inactive) | > 100 µM (inactive) | > 100 µM (inactive) | > 100 µM (inactive) | > 100 µM (inactive) | > 100 µM (inactive) | > 100 µM (inactive) | > 100 µM (inactive) | > 100 µM (inactive) | > 100 µM (inactive) | > 100 µM (inactive) | > 100 µM (inactive) | > 100 µM (inactive) | > 100 µM (inactive) | > 100 µM (inactive)
CC1CNC(c2ccc3c(c2)Cc2cc(C4=NC(C)CN4)ccc2-3)=N1 (stereo not given) | > 100 µM (inactive) | 65.8 µM (inactive) | 18.2 µM (inactive) | 31.3 µM (inactive) | > 100 µM (inactive) | > 100 µM (inactive) | 34.8 µM (inactive) | 37.2 µM (inactive) | 22.2 µM (inactive) | 20.8 µM (inactive) | 87.1 µM (inactive) | 23.2 µM (inactive) | 71.8 µM (inactive) | 37.9 µM (inactive) | 54.2 µM (inactive) | 42.9 µM (inactive) | 56.1 µM (inactive) | > 100 µM (inactive) | 19.4 µM (inactive) | 32.6 µM (inactive)
Nc1cc2c3c(cccc3c1)C(=O)N(c1ccc(OCCN3CCCCC3)cc1)C2=O | 19.7 µM (inactive) | 16.9 µM (inactive) | 19.9 µM (inactive) | 11.3 µM (inactive) | 14.9 µM (inactive) | 17.6 µM (inactive) | 18.5 µM (inactive) | 16.1 µM (inactive) | 18.5 µM (inactive) | 16.7 µM (inactive) | 22.2 µM (inactive) | 17.2 µM (inactive) | 15.3 µM (inactive) | 15.1 µM (inactive) | 14.6 µM (inactive) | 14 µM (inactive) | 20.6 µM (inactive) | 16.5 µM (inactive) | 22 µM (inactive) | 16 µM (inactive)
COc1cc2c3c4c1OCc1c5c(cc(c1-4)CC3[N+](C)(C)CC2)OCO5 (stereo not given) | 2.83 µM (inactive) | > 100 µM (inactive) | > 100 µM (inactive) | > 100 µM (inactive) | > 100 µM (inactive) | > 100 µM (inactive) | > 100 µM (inactive) | 54.8 µM (inactive) | 27.1 µM (inactive) | > 89.9 µM (inactive) | > 100 µM (inactive) | > 100 µM (inactive) | > 100 µM (inactive) | > 100 µM (inactive) | 26.7 µM (inactive) | 49.8 µM (inactive) | > 100 µM (inactive) | > 100 µM (inactive) | 4.9 µM (inactive) | > 100 µM (inactive)
CC(=O)Oc1ccc2c(c1)c1c(=O)oc(C)nc1n2Cc1ccccc1 | 17.4 µM (inactive) | > 55.7 µM (inactive) | > 100 µM (inactive) | 40.5 µM (inactive) | 34 µM (inactive) | 51.4 µM (inactive) | 27.5 µM (inactive) | > 63.5 µM (inactive) | 12 µM (inactive) | 77.6 µM (inactive) | 46.2 µM (inactive) | 19.2 µM (inactive) | 40 µM (inactive) | 28.7 µM (inactive) | > 41.8 µM (inactive) | > 52.4 µM (inactive) | 57.9 µM (inactive) | 35.2 µM (inactive) | 30.9 µM (inactive) | > 100 µM (inactive)
C=C1C(=O)O[C@H]2[C@@H]3O[C@@](C)(CC/C=C(\C)CCC[C@@H]2C)[C@H](O)C[C@@H]13 | 2.79 µM (inactive) | 6.5 µM (inactive) | 5.02 µM (inactive) | 3.66 µM (inactive) | 3.42 µM (inactive) | 4.72 µM (inactive) | 2.36 µM (inactive) | 1.61 µM (inactive) | 1.61 µM (inactive) | 2.59 µM (inactive) | 7.31 µM (inactive) | 11.8 µM (inactive) | 2.08 µM (inactive) | 17.6 µM (inactive) | 16.4 µM (inactive) | 3.16 µM (inactive) | 7.96 µM (inactive) | 4.81 µM (inactive) | 13.5 µM (inactive) | 10 µM (inactive)
Cc1ccccc1OC(C)C(=O)NN1C(=O)CC(=O)N(c2ccc(Cl)cc2)C1=S (stereo not given) | 37.2 µM (inactive) | 36.1 µM (inactive) | 27.4 µM (inactive) | 22.2 µM (inactive) | 19.3 µM (inactive) | 49.9 µM (inactive) | 32.1 µM (inactive) | 31 µM (inactive) | 32.3 µM (inactive) | 37.1 µM (inactive) | 41.4 µM (inactive) | 27.8 µM (inactive) | 25.1 µM (inactive) | 48.2 µM (inactive) | 35 µM (inactive) | 26 µM (inactive) | 36.2 µM (inactive) | 44 µM (inactive) | 34.1 µM (inactive) | 30 µM (inactive)
O=C1OC(c2ccc([N+](=O)[O-])cc2)=N/C1=C\c1ccc(Cl)cc1 | > 100 µM (inactive) | > 100 µM (inactive) | > 100 µM (inactive) | > 100 µM (inactive) | > 100 µM (inactive) | > 100 µM (inactive) | > 100 µM (inactive) | > 100 µM (inactive) | > 100 µM (inactive) | > 100 µM (inactive) | > 100 µM (inactive) | > 100 µM (inactive) | > 100 µM (inactive) | > 100 µM (inactive) | > 100 µM (inactive) | > 100 µM (inactive) | > 100 µM (inactive) | > 100 µM (inactive) | > 100 µM (inactive) | > 100 µM (inactive)
C[N+]1(CCN[N+]2(C)CCCCC2)CCc2ccccc2C1 (stereo not given) | > 100 µM (inactive) | > 100 µM (inactive) | > 100 µM (inactive) | > 100 µM (inactive) | > 100 µM (inactive) | > 100 µM (inactive) | > 100 µM (inactive) | > 100 µM (inactive) | > 100 µM (inactive) | > 100 µM (inactive) | > 100 µM (inactive) | > 100 µM (inactive) | > 100 µM (inactive) | > 100 µM (inactive) | > 100 µM (inactive) | > 100 µM (inactive) | > 100 µM (inactive) | > 100 µM (inactive) | > 100 µM (inactive) | > 100 µM (inactive)
C[C@H]1COC2=C1C(=O)C(=O)c1c2ccc2c1CCCC2(C)C [CRYPTOTANSHINONE] | 2.11 µM (inactive) | 1.35 µM (inactive) | 2.48 µM (inactive) | 2.96 µM (inactive) | 40.8 µM (inactive) | 2.71 µM (inactive) | 1.61 µM (inactive) | 1.55 µM (inactive) | 2.01 µM (inactive) | 0.326 µM (active) | 3.19 µM (inactive) | 4.25 µM (inactive) | 0.382 µM (active) | 11.6 µM (inactive) | 0.881 µM (active) | 3.42 µM (inactive) | 1.73 µM (inactive) | 8.18 µM (inactive) | 2 µM (inactive) | 1.95 µM (inactive)

Source: ChEMBL document CHEMBL1201862, “PubChem BioAssay data set” (2004)
